Earlier results as cited in patent US20240058323A1, “PHARMACEUTICAL COMPOSITION CONTAINING PYRROLOQUINOLINE QUINONE TRILITHIUM SALT NONAHYDRATE COMPOUND, CAPSULE, AND PREPARATION METHOD THEREFOR” (SHANGHAI RAISING PHARMACEUTICAL CO., LTD, priority 2020, published 2024).
Structures can show the parent of a compound that is named as a salt.

Conditions: crystalline nonahydrate API

Compound: O=C(O)c1cc(C(=O)O)c2c(n1)C(=O)C(=O)c1cc(C(=O)O)[nH]c1-2 [4,5-dioxo-4,5-dihydro-1H-pyrrolo[2,3-f]quinoline-2,7,9-tricarboxylic acid lithium salt nonahydrate compound]
- temperature above which water is rapidly and irreversibly lost: higher than 60 °C
